From publication PMC11061835, “Elucidating the Mechanism of Metabolism of Cannabichromene by Human Cytochrome P450s” (Journal of Natural Products, 2024)
“And” between values parts separate entries of the source, which are not always exact repeats. Equal values may be shown once.

What was measured:
[1] = design: method as in PMID 28640062; settings: patients who consumed a CBD oil, cited from earlier work
[2] = system: BV2 microglial cells, stimulated with lipopolysaccharide (LPS); assay: IL-6 ELISA in LPS-stimulated BV2 cells; type: cell-based, mouse; settings: 0.1, 1.0, 2.5, 5.0 μM, LPS-stimulated
Description: BV2 cells were a gift from Dr. Bob McCusker, University of Illinois. They were cultured and maintained at 37 °C in a humidified atmosphere of 95% air and 5% CO2 in high-glucose Dulbecco’s modified Eagle’s (DMEM) medium (Cat No. 10-013-CV, Corning Life Sciences), supplemented with 5% heat-inactivated fetal bovine serum (FBS), streptomycin (100 μg/mL), and penicillin (100 units/mL). Stocks of all the minor cannabinoids were made in ethanol and stored at −80 °C and diluted as required before cell treatment. A final concentration of ethanol was maintained at 0.1% in the cell culture experiments.
BV-2 cells were plated at a density of 50 000 cells/well in a 24-well plate at 37 °C under controlled conditions. Cells were pretreated with the minor cannabinoids at various concentrations (0.1, 1.0, 2.5, 5.0 μM) for 4 h and then stimulated with LPS for 24 h. The culture medium was removed and saved for the determination of nitric oxide production through Cayman’s Griess assay. IL-6, TNFα, and Arginase 1 production was also determined utilizing collected medium. For the Greiss assay, in a 96-well plate, 100 μL of culture medium was used, and 50 μL of both Greiss reagent-1 and Greiss reagent-2 was added and incubated for 10 min. The absorbance was measured at 540 nm using a plate reader (SpectraMax iD5). The quantification was done using a calibration curve that was generated using the sodium nitrite standard obtained from Cayman Chemicals.
BV-2 cells were pretreated with the minor cannabinoids as described previously for 4 h in serum media (reduced to 5% FBS). Cells were stimulated with LPS (25 ng/mL in growth media) and allowed to incubate for 24 h. The culture medium was collected, and the concentrations of IL-6 (Cayman Chemicals), TNFα (ThermoFisher Scientific), and arginase 1 (ThermoFisher Scientific) cytokine expression were determined using specific monoclonal antibodies by ELISA kits as per manufacturer’s instructions.

[3] = molecular target: cannabinoid receptor 2 (CB2); design: method as in PMID 31368508; settings: agonist; cited from earlier work
CYP2D6 = CYP2D6 (Homo sapiens, UniProt P10635); assay: Spectroscopic titration (Soret shift), CYP2D6; type: binding; design: His-tag; made in house; host or cells: E. coli DH-5α with pTGro7 plasmid; settings: CYP2D6, absence of CPR
Chain of CYP2D6 (P10635 whole entry): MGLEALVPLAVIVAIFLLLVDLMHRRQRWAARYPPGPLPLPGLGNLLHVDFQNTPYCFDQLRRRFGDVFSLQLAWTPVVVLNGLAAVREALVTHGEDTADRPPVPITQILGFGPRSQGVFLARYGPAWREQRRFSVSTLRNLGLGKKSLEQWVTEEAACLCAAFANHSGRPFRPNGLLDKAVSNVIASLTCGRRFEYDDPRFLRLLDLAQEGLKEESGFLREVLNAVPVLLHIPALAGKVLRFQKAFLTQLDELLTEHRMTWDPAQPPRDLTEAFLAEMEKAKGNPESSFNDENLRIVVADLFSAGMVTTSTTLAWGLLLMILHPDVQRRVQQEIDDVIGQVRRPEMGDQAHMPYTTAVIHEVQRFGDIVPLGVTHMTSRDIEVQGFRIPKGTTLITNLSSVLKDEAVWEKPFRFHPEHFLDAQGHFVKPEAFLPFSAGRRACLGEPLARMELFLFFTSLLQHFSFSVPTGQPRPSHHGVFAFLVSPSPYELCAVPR
Description: CBC binding to various CYPs was determined by analyzing the Soret shift from ∼417 to ∼390 nm. CBC (stock 10 mM) was dissolved in ethanol and titrated with different CYPs at room temperature. Buffer-exchanged CYP2J2, CYP2D6, CYP3A4, and CYP2C8 (concentrations of proteins were kept between 4 and 5 μM) were dissolved in 0.1 M phosphate buffer (pH = 7.4), and initial spectra were recorded from 200 to 800 nm with a prominent peak at 417 nm. The concentration of CBC was varied from 0 to 100 μM keeping the final concentration of substrate in EtOH not more than 1% in cuvette. 0–4 μL of stock CBC was added using a Hamilton syringe in both the sample and blank cuvettes. The mixture was incubated for 5 min at 37 °C, and absorbance spectra were recorded using a Cary Bio 300 UV–vis spectrophotometer (Agilent Technologies, Santa Clara, CA). To eliminate the background absorbance, we derived the final spectra by […].

TRPV2 = system: TRPV2; design: method as in PMID 30697147; settings: read-out: agonism toward TRPV2; cited from earlier work
TRPV1 = system: TRPV1; design: method as in PMID 30697147; settings: read-out: agonism toward TRPV1; cited from earlier work

CCCCCc1cc(O)c2c(c1)OC(C)(CCC=C(C)C)C=C2 (centres unmarked) [CBC, Cannabichromene]
detectable level of CBC in plasma ([1]; plasma): ~60 ng/mL | detectable level of CBC in urine ([1]; urine): ~94 ng/mL | effect on IL-6 levels [2]: Concentration dependent reduction | Ki [3]: ~0.1 µM | ΔAmax (spin state change due to heme perturbation) (CYP2D6): 0.09 ± 0.01 and ~0.09 | Kd (CYP2D6; read-out: Kd(app)): 11.4 µM and ~11 µM | EC50 (TRPV2): < 10 µM | EC50 (TRPV1): < 10 µM
